How the values were obtained:
[1] = test system: intraocular pressure in rabbits; assay: Dose response study of topically administered Compound V and timolol on intraocular pressure of rabbits; format: in vivo, rabbit; conditions: topical
Procedure: (§1) The antiglaucoma activity of the compounds was tested by measuring the effect on intraocular pressure in rabbits as described by Tinjum, A.M., Acta Ophthalmologica, 50, 677 (1972). Male albino, New Zealand rabbits were placed in restraining devices and the intraocular pressure was measured with an applamatic tonometer. […]

[2] = test system: intraocular pressure in rabbits; assay: Topically administered Compound V alone and in combination with timolol on intraocular pressure of rabbits; format: in vivo, rabbit; conditions: topical, alone
Procedure: as §1

[3] = test system: intraocular pressure in rabbits; assay: Effects of topically administered renin inhibiting compounds on intraocular pressure of rabbits; format: in vivo, Male albino, New Zealand rabbits; conditions: topical 0.1 ml
Procedure: The antiglaucoma activity of the compounds was tested by measuring the effect on intraocular pressure in rabbits as described by Tinjum, A.M., Acta Ophthalmologica, 50, 677 (1972). Male albino, New Zealand rabbits were placed in restraining devices and the intraocular pressure was measured with an applamatic tonometer. Exactly 0.1 ml of an isotonic saline solution containing a test compound was instilled into the conjuctival sac and the intraocular pressure was measured at 5, 15, 30, 60, 90, 120 and 180 minutes afterwards.

[4] = 0.03%, 5 minutes after administration
[5] = 0.03%, 15 minutes after administration
[6] = 0.03%, 30 minutes after administration
[7] = 0.03%, 60 minutes after administration
[8] = 0.03%, 90 minutes after administration
[9] = 0.03%, 120 minutes after administration
[10] = 0.03%, 150 minutes after administration
[11] = 0.05%, 15 minutes after administration
[12] = 0.05%, 30 minutes after administration
[13] = 0.05%, 60 minutes after administration

COc1ccc(CC(NC(=O)CC(C)(C)N)C(=O)NC(Cc2cnc[nH]2)C(=O)N[C@@H](CC2CCCCC2)[C@@H](O)[C@@H](O)CC(C)C)cc1 (stereo partly drawn) [Compound V, H-((beta,beta-dimethyl)-beta Ala)-(4-OCH3)Phe-His amide of 2(S)-amino 1-cyclohexyl 3(R),4(S) dihydroxy-6-methylheptane]
Mean Intraocular Pressure in mmHg ([1]; 0.01%, 5 minutes after administration): 17.7 mmHg | Mean Intraocular Pressure in mmHg ([1]; 0.01%, 15 minutes after administration): 16.3 mmHg | Mean Intraocular Pressure in mmHg ([1]; 0.01%, 30 minutes after administration): 13.7 mmHg | Mean Intraocular Pressure in mmHg ([1]; 0.01%, 60 minutes after administration): 16.9 mmHg | Mean Intraocular Pressure in mmHg ([1]; 0.01%, 90 minutes after administration): 15.4 mmHg | Mean Intraocular Pressure in mmHg ([1]; 0.01%, 120 minutes after administration): 18.2 mmHg | Mean Intraocular Pressure in mmHg ([1]; 0.01%, 150 minutes after administration): 20.3 mmHg | Mean Intraocular Pressure in mmHg ([1]; 0.01%, CONTROL): 19.2 mmHg | Mean Intraocular Pressure in mmHg [1, 4]: 13.8 mmHg | Mean Intraocular Pressure in mmHg [1, 5]: 13.3 mmHg | Mean Intraocular Pressure in mmHg [1, 6]: 12.8 mmHg | Mean Intraocular Pressure in mmHg [1, 7]: 13.8 mmHg | Mean Intraocular Pressure in mmHg [1, 8]: 13.8 mmHg | Mean Intraocular Pressure in mmHg [1, 9]: 15.2 mmHg | Mean Intraocular Pressure in mmHg [1, 10]: 16.8 mmHg | Mean Intraocular Pressure in mmHg ([1]; 0.03%, CONTROL): 19.0 mmHg | Mean Intraocular Pressure in mmHg ([1]; 0.1%, 5 minutes after administration): 14.1 mmHg | Mean Intraocular Pressure in mmHg ([1]; 0.1%, 15 minutes after administration): 13.1 mmHg | Mean Intraocular Pressure in mmHg ([1]; 0.1%, 30 minutes after administration): 11.9 mmHg | Mean Intraocular Pressure in mmHg ([1]; 0.1%, 60 minutes after administration): 11.3 mmHg | Mean Intraocular Pressure in mmHg ([1]; 0.1%, 90 minutes after administration): 11.5 mmHg | Mean Intraocular Pressure in mmHg ([1]; 0.1%, 120 minutes after administration): 17.5 mmHg | Mean Intraocular Pressure in mmHg ([1]; 0.1%, 150 minutes after administration): 19.0 mmHg | Mean Intraocular Pressure in mmHg ([1]; 0.1%, CONTROL): 18.7 mmHg | Mean Intraocular Pressure in mmHg ([1]; 0.3%, 5 minutes after administration): 13.3 mmHg | Mean Intraocular Pressure in mmHg ([1]; 0.3%, 15 minutes after administration): 12.0 mmHg | Mean Intraocular Pressure in mmHg ([1]; 0.3%, 30 minutes after administration): 10.9 mmHg | Mean Intraocular Pressure in mmHg ([1]; 0.3%, 60 minutes after administration): 12.2 mmHg | Mean Intraocular Pressure in mmHg ([1]; 0.3%, 90 minutes after administration): 12.4 mmHg | Mean Intraocular Pressure in mmHg ([1]; 0.3%, 120 minutes after administration): 16.0 mmHg | Mean Intraocular Pressure in mmHg ([1]; 0.3%, 150 minutes after administration): 18.8 mmHg | Mean Intraocular Pressure in mmHg ([1]; 0.3%, CONTROL): 21.2 mmHg | Mean Intraocular Pressure in mmHg [2, 4]: 10.4 mmHg | Mean Intraocular Pressure in mmHg [2, 5]: 10.3 mmHg | Mean Intraocular Pressure in mmHg [2, 6]: 10.1 mmHg | Mean Intraocular Pressure in mmHg [2, 7]: 10.2 mmHg | Mean Intraocular Pressure in mmHg [2, 8]: 10.4 mmHg | Mean Intraocular Pressure in mmHg [2, 9]: 14.5 mmHg | Mean Intraocular Pressure in mmHg [2, 10]: 17.0 mmHg | Mean Intraocular Pressure in mmHg ([2]; 0.03%, CONTROL): 17.5 mmHg

CC(C)(C)NC[C@H](O)COc1nsnc1N1CCOCC1 [Timolol, reference compound]
Mean Intraocular Pressure in mmHg ([1]; 0.02%, 30 minutes after administration): 13.9 mmHg | Mean Intraocular Pressure in mmHg ([1]; 0.02%, 120 minutes after administration): 22.4 mmHg | Mean Intraocular Pressure in mmHg ([1]; 0.02%, 150 minutes after administration): 19.9 mmHg | Mean Intraocular Pressure in mmHg [1, 11]: 12.8 mmHg | Mean Intraocular Pressure in mmHg [1, 12]: 12.8 mmHg | Mean Intraocular Pressure in mmHg [1, 13]: 12.3 mmHg | Mean Intraocular Pressure in mmHg ([1]; 0.05%, 150 minutes after administration): 20.3 mmHg | Mean Intraocular Pressure in mmHg ([1]; 0.2%, 5 minutes after administration): 12.1 mmHg | Mean Intraocular Pressure in mmHg ([1]; 0.2%, 15 minutes after administration): 12.5 mmHg | Mean Intraocular Pressure in mmHg ([1]; 0.2%, 60 minutes after administration): 12.8 mmHg | Mean Intraocular Pressure in mmHg ([1]; 0.5%, 5 minutes after administration): 12.8 mmHg | Mean Intraocular Pressure in mmHg ([1]; 0.5%, 15 minutes after administration): 12.8 mmHg | Mean Intraocular Pressure in mmHg ([1]; 0.5%, 30 minutes after administration): 11.0 mmHg | Mean Intraocular Pressure in mmHg ([1]; 0.5%, 60 minutes after administration): 10.9 mmHg | Mean Intraocular Pressure in mmHg ([2]; 0.05%, 5 minutes after administration): 10.2 mmHg | Mean Intraocular Pressure in mmHg [2, 11]: 11.0 mmHg | Mean Intraocular Pressure in mmHg [2, 12]: 10.1 mmHg | Mean Intraocular Pressure in mmHg [2, 13]: 9.9 mmHg | Mean Intraocular Pressure in mmHg ([2]; 0.05%, 90 minutes after administration): 13.9 mmHg | Mean Intraocular Pressure in mmHg ([3]; 0.5% active substance, 5 minutes after administration): 12.1 mmHg | Mean Intraocular Pressure in mmHg ([3]; 0.5% active substance, 15 minutes after administration): 9.9 mmHg | Mean Intraocular Pressure in mmHg ([3]; 0.5% active substance, 30 minutes after administration): 11.9 mmHg | Mean Intraocular Pressure in mmHg ([3]; 0.5% active substance, 60 minutes after administration): 10.6 mmHg | Mean Intraocular Pressure in mmHg ([3]; 0.5% active substance, 90 minutes after administration): 12.4 mmHg | Mean Intraocular Pressure in mmHg ([3]; 0.5% active substance, 120 minutes after administration): 13.3 mmHg

CCOC(=O)[C@H](C)NC(Cc1ccccc1)C(=O)NC(Cc1cnc[nH]1)C(=O)N[C@@H](CC1CCCCC1)[C@@H](O)[C@@H](O)CC(C)C (stereo partly drawn) [Compound XIV, (1(S)-(Ethoxycarbonyl)-ethyl)-Phe-His amide of 2 (S)-amino 1-cyclohexyl-3(R),4(S)-dihydroxy 6-methylheptane]
Mean Intraocular Pressure in mmHg ([3]; 0.1% (w/v), 0 minutes after administration): 21.0 mmHg | Mean Intraocular Pressure in mmHg ([3]; 0.1% (w/v), 5 minutes after administration): 16.8 mmHg | Mean Intraocular Pressure in mmHg ([3]; 0.1% (w/v), 15 minutes after administration): 14.0 mmHg | Mean Intraocular Pressure in mmHg ([3]; 0.1% (w/v), 30 minutes after administration): 15.1 mmHg | Mean Intraocular Pressure in mmHg ([3]; 0.1% (w/v), 60 minutes after administration): 14.6 mmHg | Mean Intraocular Pressure in mmHg ([3]; 0.1% (w/v), 90 minutes after administration): 16.4 mmHg | Mean Intraocular Pressure in mmHg ([3]; 0.1% (w/v), 120 minutes after administration): 17.9 mmHg | Mean Intraocular Pressure in mmHg ([3]; 0.1% (w/v), 180 minutes after administration): 19.6 mmHg

— patent publication US5059589A, “Glaucoma treatment” (Abbott Laboratories, priority 1990, dated 1991)
